Values of other authors as cited in patent publication US20060009656A1, “METHOD OF PRODUCING BETAINE COMPOUND” (priority 2004, published 2006).
Counter-ions that a name gives are not always drawn.

Settings: as methyl supplier in feed

C[N+](C)(C)CC(=O)O [Betaine anhydrous, 2-(Trimethylammonio) ethanoic acid, hydroxide, inner salt]
effective value of organism relative to 50% choline chloride (relative to 50% choline chloride): 1.8 times | effective value of organism relative to DL-methionine (relative to DL-methionine): 3 times
